According to ChEMBL document CHEMBL1201862, “PubChem BioAssay data set” (2004):
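Briefly, cells in 96-well plates were exposed to five compound concentrations for 48 h, and endpoints were estimated by linear interpolation. GI50 = concentration required for 50% inhibition of growth.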 Activity calls are given as the source filed them. No stated cut-off is given here; in the data, active = GI50 up to about 1.1 µM and inactive = higher.

Tests used:
Assay in all cases: inhibition of tumour cell growth, NCI panel, 48 h
[1] = tested on: 786-0
[2] = tested on: A549
[3] = tested on: CAKI-1
[4] = tested on: CCRF-CEM
[5] = tested on: COLO 205
[6] = tested on: DU-145
[7] = tested on: EKVX
[8] = tested on: HCC 2998
[9] = tested on: HCT-15
[10] = tested on: HL-60
[11] = tested on: HOP-62
[12] = tested on: HT-29
[13] = tested on: IGROV-1
[14] = tested on: K562
[15] = tested on: KM12
[16] = tested on: M14
[17] = tested on: MCF7
[18] = tested on: MDA-MB-231
[19] = tested on: MDA-N
[20] = tested on: MOLT-4
[21] = tested on: Malme-3M
[22] = tested on: NCI-H23
[23] = tested on: OVCAR-8
[24] = tested on: PC-3
[25] = tested on: RPMI-8226
[26] = tested on: RXF 393
[27] = tested on: SF-268
[28] = tested on: SF-295
[29] = tested on: SK-MEL-28
[30] = tested on: SK-MEL-5
[31] = tested on: SK-OV-3
[32] = tested on: SN12C
[33] = tested on: SNB-75
[34] = tested on: SR
[35] = tested on: SW-620
[36] = tested on: T47D
[37] = tested on: TK-10
[38] = tested on: UACC-257
[39] = tested on: UACC-62
[40] = tested on: A498
[41] = tested on: ACHN
[42] = tested on: BT-549
[43] = tested on: HCT-116
[44] = tested on: HOP-92
[45] = tested on: LOX IMVI
[46] = tested on: MDA-MB-435
[47] = tested on: NCI-H226
[48] = tested on: NCI-H460
[49] = tested on: NCI/ADR-RES
[50] = tested on: OVCAR-3
[51] = tested on: OVCAR-4
[52] = tested on: OVCAR-5
[53] = tested on: SNB-19
[54] = tested on: U-251
[55] = tested on: UO-31

Question: What does the source list for `O=[N+]([O-])c1ccc(/C=N/Nc2nnc3c4ccccc4c4ncccc4c3n2)o1`?
Answer: GI50 [1]: > 10 µM (inactive); GI50 [2]: > 10 µM (inactive); GI50 [3]: > 10 µM (inactive); GI50 [4]: > 10 µM (inactive); GI50 [5]: > 10 µM (inactive); GI50 [6]: > 10 µM (inactive); GI50 [7]: > 10 µM (inactive); GI50 [8]: > 10 µM (inactive); GI50 [9]: > 10 µM; GI50 [10]: > 10 µM (inactive); GI50 [11]: > 10 µM (inactive); GI50 [12]: > 10 µM (inactive); GI50 [13]: > 10 µM (inactive); GI50 [14]: > 10 µM (inactive); GI50 [15]: > 10 µM (inactive); GI50 [16]: > 10 µM (inactive); GI50 [17]: > 10 µM (inactive); GI50 [18]: > 10 µM (inactive); GI50 [19]: > 10 µM (inactive); GI50 [20]: > 10 µM (inactive); GI50 [21]: > 10 µM (inactive); GI50 [22]: > 10 µM (inactive); GI50 [23]: > 10 µM (inactive); GI50 [24]: > 10 µM (inactive); GI50 [25]: > 10 µM (inactive); GI50 [26]: > 10 µM (inactive); GI50 [27]: > 10 µM (inactive); GI50 [28]: > 10 µM (inactive); GI50 [29]: > 10 µM (inactive); GI50 [30]: > 10 µM (inactive); GI50 [31]: > 10 µM (inactive); GI50 [32]: > 10 µM (inactive); GI50 [33]: > 10 µM (inactive); GI50 [34]: > 10 µM (inactive); GI50 [35]: > 10 µM (inactive); GI50 [36]: > 10 µM (inactive); GI50 [37]: > 10 µM (inactive); GI50 [38]: > 10 µM (inactive); GI50 [39]: > 10 µM (inactive)

Question: Which results are given for `N=C(N)C1CN(CCc2c[nH]c3ccccc23)C(=O)NC1=O` (stereo unspecified)?
Answer: GI50 [1]: > 100 µM (inactive); GI50 [40]: > 100 µM (inactive); GI50 [2]: > 100 µM (inactive); GI50 [41]: > 100 µM (inactive); GI50 [42]: > 100 µM (inactive); GI50 [4]: > 100 µM (inactive); GI50 [5]: > 100 µM (inactive); GI50 [6]: > 100 µM (inactive); GI50 [7]: > 100 µM (inactive); GI50 [8]: > 100 µM (inactive); GI50 [43]: > 100 µM (inactive); GI50 [9]: > 100 µM; GI50 [10]: > 100 µM (inactive); GI50 [11]: > 100 µM (inactive); GI50 [44]: > 100 µM (inactive); GI50 [12]: > 100 µM (inactive); GI50 [13]: > 100 µM (inactive); GI50 [14]: > 100 µM (inactive); GI50 [45]: > 100 µM (inactive); GI50 [16]: > 100 µM (inactive); GI50 [17]: > 100 µM (inactive); GI50 [18]: > 100 µM (inactive); GI50 [46]: > 100 µM (inactive); GI50 [19]: > 100 µM (inactive); GI50 [20]: > 100 µM (inactive); GI50 [21]: > 100 µM (inactive); GI50 [47]: > 100 µM (inactive); GI50 [22]: > 100 µM (inactive); GI50 [48]: > 100 µM (inactive); GI50 [49]: > 100 µM (inactive); GI50 [50]: > 100 µM (inactive); GI50 [51]: > 100 µM (inactive); GI50 [52]: > 100 µM (inactive); GI50 [23]: > 100 µM (inactive); GI50 [24]: > 100 µM (inactive); GI50 [25]: > 100 µM (inactive); GI50 [27]: > 100 µM (inactive); GI50 [28]: > 100 µM (inactive); GI50 [29]: > 100 µM (inactive); GI50 [30]: > 100 µM (inactive); GI50 [31]: > 100 µM (inactive); GI50 [32]: > 100 µM (inactive); GI50 [53]: > 100 µM (inactive); GI50 [33]: > 100 µM (inactive); GI50 [34]: > 100 µM (inactive); GI50 [35]: > 100 µM (inactive); GI50 [36]: > 100 µM (inactive); GI50 [37]: > 100 µM (inactive); GI50 [54]: > 100 µM (inactive); GI50 [38]: > 100 µM (inactive); GI50 [39]: > 100 µM (inactive); GI50 [55]: > 100 µM (inactive)
